Reference: patent US6703386B2, “Diphenylazetidinone derivatives, process for their preparation, medicaments comprising these compounds and their use” (Aventis Pharma Deutschland GmbH, priority 2000, dated 2004)

Key:
[1] = tested on: cholesterol absorption (uptake of ^14C-cholesterol by the liver); assay: Cholesterol absorption test: uptake of 14C-cholesterol by the liver after peroral test meal; type: in vivo, NMRI mice; conditions: dose at which uptake of 14C-cholesterol by the liver is halved vs control group, mouse
From the text: Effect on Cholesterol Absorption+^3H-taurocholic Acid Excretion Using Fecal Excrement of Mice, Rats or Hamsters
NMRI mice, Wistar rats, or Golden Syrian hamsters (in groups of n=4-6) are kept in metabolic cages, where they are fed with a standard diet (Altromin, Lage (Lippe)). The afternoon prior to the administration of the radioactive tracers (^14C-cholesterol), the feed is removed and the animals are adapted to grates.
Additionally, the animals are labeled s.c. with ^3H-TCA (taurocholic acid) (for example 1 μCi/mouse up to 5 μCi/rat) 24 hours prior to the peroral administration of the test meal (^14C-cholesterol in Intralipid® 20, Pharmacia-Upjohn).
Cholesterol absorption test: 0.25 ml/mouse Intralipid® 20 (Pharmacia-Upjohn) ((spiked with 0.25 μCi of ^14C-cholesterol in 0.1 mg of cholesterol) is administered perorally by gavage.
Test substances are prepared separately in 0.5% methylcellulose (Sigma)/5% Solutol (BASF, Ludwigshafen) or a suitable vehicle.
The administration volume of the test substance is 0.5 ml/mouse. The test substance is administered immediately prior to the test meal (Intralipid labeled with ^14C-cholesterol) (cholesterol absorption test).
The feces are collected over a period of 24 h: fecal elimination of ^14C-cholesterol and ^3H-taurocholic acid (TCA) is determined after 24 hours.
The livers are removed and homogenized, and aliquots are incinerated in an oximate (Model 307, Packard) to determine the amount of ^14C-cholesterol which had been taken up/absorbed.
The amount of ^14C-cholesterol taken up by the liver is based on the administered dose. The ED50 values are interpolated from a dose-effect curve as the dose at which the uptake of ^14C-cholesterol by the liver is halved (50%), based on a control group.

Caco-2 cell monolayers = assay: Bioabsorption in the Caco cell model (Hilgers et al.); type: in vitro ADME; conditions: estimated from Caco cell model
From the text: The bioabsorption of the compounds of the formula I can be examined using the Caco cell model (A. R. Hilgers et al., Caco-2 cell monolayers as a model for drug transport across the intestinal mucosa, Pharm. Res. 1990, 7, 902).
Below is a bioabsorption measurement for a reference compound

SMILES | ED50 (liver) [1] [mg/mouse] | Estimated human bioabsorption (Caco-2 cell monolayers) [%]
O=C(COCCOCCOCC(=O)Nc1ccccc1C(Nc1ccccn1)C(c1ccccn1)C(O)c1ccccc1)NCc1cccc(C2C(CCC(O)c3ccc(F)cc3)C(=O)N2c2ccc(F)cc2)c1.O=C(O)C(F)(F)F (stereo not shown) [XVIII, (1-{2-[2-(2-{2-[(3-{1-(4-Fluorophenyl)-3-[3-(4-fluorophenyl)-3-hydroxypropyl]-4-oxoazetidin-2-yl}benzylcarbamoyl)methoxy]ethoxy}ethoxy)acetylamino]phenyl}-3-hydroxy-3-phenyl-2-pyridin-2-ylpropyl)pyridin-2-ylammonium trifluoroacetate] | 0.3 | –
O=C(COCCOCC(=O)Nc1ccccc1C(Nc1ccccn1)C(c1ccccn1)C(O)c1ccccc1)NCc1ccc(C2C(CCC(O)c3ccc(F)cc3)C(=O)N2c2ccc(F)cc2)cc1.O=C(O)C(F)(F)F (stereo not shown) [XIX, {1-[2-(2-{2-[(4-{1-(4-Fluorophenyl)-3-[3-(4-fluorophenyl)-3-hydroxypropyl]-4-oxoazetidin-2-yl}benzylcarbamoyl)methoxy]ethoxy}acetylamino)phenyl]-3-hydroxy-3-phenyl-2-pyridin-2-ylpropyl}pyridin-2-ylammonium trifluoroacetate] | 0.1 | –
O=C(CCCCCCCCCCC(=O)Nc1ccccc1C(Nc1ccccn1)C(c1ccccn1)C(O)c1ccccc1)NCc1cccc(C2C(CCC(O)c3ccc(F)cc3)C(=O)N2c2ccc(F)cc2)c1.O=C(O)C(F)(F)F (stereo not shown) [XVI, (1-{2-[11-(3-{1-(4-Fluorophenyl)-3-[3-(4-fluorophenyl)-3-hydroxypropyl]-4-oxoazetidin-2-yl}benzylcarbamoyl)undecanoylamino]phenyl}-3-hydroxy-3-phenyl-2-pyridin-2-ylpropyl)pyridin-2-yl ammonium trifluoroacetate] | 0.03 | –
O=C1[C@H](CC[C@H](O)c2ccc(F)cc2)[C@@H](c2ccc(O)cc2)N1c1ccc(F)cc1 [Ezetimibe] | – | 100
